For eleven compounds, inhibition results are on record in patent US5391540A, “Substituted pyridine compounds” (Rohm and Haas Company, priority 1993, dated 1995).

Common to all, as to assay: Pre-emergent herbicidal activity (Table A)
Common to all, as to assay type: in vivo

One assay deals with Velvetleaf. To be noted: Abutilon theophrasti, pre-emergence, Vele, 11.2 kg/ha, 10-14 days, read-out: herbicidal rating (% inhibition). In short, it runs like this: (§1)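 Seeds or vegetative propagules were set on topsoil compacted to 0.95 to 1.27 cm below the pan rim, then covered with soil thoroughly mixed with a known amount of test compound in acetone or water carrier. Ratings follow a scale of percent inhibition per species.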

The next assay has as its system Canada thistle. To be noted: Cirsium arvense, pre-emergence, Cath, 11.2 kg/ha, 10-14 days, read-out: herbicidal rating (% inhibition). The method in brief: as §1
A further assay relates to Cocklebur. To be noted: Xanthium strumarium, pre-emergence, Cobu, 11.2 kg/ha, 10-14 days, read-out: herbicidal rating (% inhibition). In short, it runs like this:
as §1

A further assay concerns Yellow Nutsedge. The settings on record: Cyperus, pre-emergence, Yens, 11.2 kg/ha, 10-14 days, read-out: herbicidal rating (% inhibition). In short, it runs like this: as §1
For the next assay, the system named is Barnyardgrass. The settings on record: Echinochloa crus-galli, pre-emergence, Bygr, 11.2 kg/ha, 10-14 days, read-out: herbicidal rating (% inhibition). In short, it runs like this: as §1
A further assay has as its system Common Lambsquarters. The settings on record: Chenopodium album, pre-emergence, Colq, 11.2 kg/ha, 10-14 days, read-out: herbicidal rating (% inhibition). The method in brief: as §1
A further assay concerns Downy Brome. To be noted: Bromus tectorum, pre-emergence, Dobr, 11.2 kg/ha, 10-14 days, read-out: herbicidal rating (% inhibition). The method in brief: as §1
Another assay has as its system Rhizome Johnsongrass. To be noted: Sorghum halepense, pre-emergence, Rhjg, 11.2 kg/ha, 10-14 days, read-out: herbicidal rating (% inhibition). The method in brief: as §1
A further assay concerns Quackgrass. To be noted: pre-emergence, Rhqg, 11.2 kg/ha, 10-14 days, read-out: herbicidal rating (% inhibition). The method in brief: as §1
The subject of another assay is Morningglory. To be noted: Ipomoea, pre-emergence, Mogl, 11.2 kg/ha, 10-14 days, read-out: herbicidal rating (% inhibition). The method in brief:
as §1

The test system of another assay is Pennsylvania Smartweed. The settings on record: pre-emergence, Pesw, 11.2 kg/ha, 10-14 days, read-out: herbicidal rating (% inhibition). In short, it runs like this:
as §1

The inhibition is the percentage by which the read-out fell short of the control. Take `COC(=O)c1c(OC)nc(C(F)(F)F)c(C(=O)n2cccn2)c1C1CCC1` [Compound 52, 3-pyridinecarboxylic acid, 4-cyclobutyl-2-methoxy-5-(1H-pyrazo1-1-ylcarbonyl)-6-(trifluoromethyl)-, methyl ester]: the inhibition at 11200 g/ha with Velvetleaf, with Canada thistle, in the assay with Cocklebur, with Yellow Nutsedge, in the assay with Barnyardgrass and in the assay with Common Lambsquarters was 75 to 100% in each case. Moreover, the inhibition at 11200 g/ha in the assay on Downy Brome lay within 75 to 100%; in the assay with Rhizome Johnsongrass, 0 to 24%; with Quackgrass, 75 to 100%; in the assay on Morningglory, 75 to 100%; with Pennsylvania Smartweed, 75 to 100%.

Take `CCSC(=O)c1c(C(F)(F)F)nc(OC)c(C(=O)OC)c1CC(C)C` [Compound 53, 3-pyridinecarboxylic acid, 5-[(ethylthio)carbonyl]-2-methoxy-4-(2-methylpropyl)-6-(trifluoromethyl)-, methyl ester]: the inhibition at 11200 g/ha lay in the range of 75 to 100% in the assay on Velvetleaf; 0 to 24% in the assay on Canada thistle; 75 to 100% in the assay on Cocklebur; 0 to 24% with Yellow Nutsedge; 75 to 100% in the assay with Barnyardgrass; 75 to 100% with Common Lambsquarters. Moreover, the inhibition at 11200 g/ha in the assay with Downy Brome is 75 to 100%; in the assay with Rhizome Johnsongrass, 0 to 24%; in the assay with Quackgrass, 75 to 100%; in the assay on Morningglory it was 75 to 100%; with Pennsylvania Smartweed, 75 to 100%.

With `COc1nc(C(F)(F)F)c(C2=NCCS2)c(CC(C)C)c1C(=O)SC` [Compound 54, 3-pyridinecarbothioic acid, 5-(4,5-dihydro-2-thiazolyl)-2-methoxy-4-(2-methylpropyl)-6-(trifluoromethyl)-, S-methyl ester], the inhibition at 11200 g/ha was in the range of 75 to 100% in the assay with Velvetleaf; 75 to 100% in the assay with Canada thistle; 25 to 49% in the assay on Cocklebur; 0 to 24% in the assay on Yellow Nutsedge; 75 to 100% in the assay on Barnyardgrass; 75 to 100% with Common Lambsquarters. Besides, the inhibition at 11200 g/ha in the assay with Downy Brome fell in the range of 75 to 100%; in the assay with Rhizome Johnsongrass it was 0 to 24%; in the assay on Quackgrass, 75 to 100%; in the assay with Morningglory, 75 to 100%; in the assay with Pennsylvania Smartweed, 75 to 100%.

As to `CN=C(SC)c1c(OC)nc(C(F)(F)F)c(C(=O)OC)c1CC(C)C` [Compound 55, 3-pyridinecarboxylic acid, 6-methoxy-5-[(methylimino)(methylthio)methyl]-4-(2-methylpropyl)-2-(trifluoromethyl)-, methyl ester], the inhibition at 11200 g/ha lay within 25 to 49% in the assay on Velvetleaf; 0 to 24% in the assay with Canada thistle; 0 to 24% with Cocklebur; 0 to 24% with Yellow Nutsedge; 75 to 100% with Barnyardgrass; 75 to 100% in the assay with Common Lambsquarters. Besides, the inhibition at 11200 g/ha fell in the range of 75 to 100% with Downy Brome; 0 to 24% in the assay with Rhizome Johnsongrass; 75 to 100% in the assay on Quackgrass; 25 to 49% in the assay on Morningglory; 75 to 100% in the assay with Pennsylvania Smartweed.

In the case of `COC=Nc1c(OC)nc(C(F)(F)F)c(C(=O)OC)c1CC(C)C` [Compound 56, 3-pyridinecarboxylic acid, 6-methoxy-5-[(methoxymethylene)amino]-4-(2-methylpropyl)-2-(trifluoromethyl)-, methyl ester], the inhibition at 11200 g/ha lay in the range of 0 to 24% with Velvetleaf; 0 to 24% with Canada thistle; 0 to 24% in the assay on Cocklebur; 0 to 24% in the assay on Yellow Nutsedge; 75 to 100% with Barnyardgrass; 75 to 100% in the assay with Common Lambsquarters. Moreover, the inhibition at 11200 g/ha is 75 to 100% in the assay on Downy Brome; 0 to 24% in the assay with Rhizome Johnsongrass; 0 to 24% in the assay with Quackgrass; 0 to 24% in the assay with Morningglory; 0 to 24% with Pennsylvania Smartweed.

Take `COC(=O)c1c(C(F)(F)F)nc(OC)c(N=CN(C)C)c1CC(C)C` [Compound 57, 3-pyridinecarboxylic acid, 5[[(dimethylamino)methylene]amino]-6-methoxy-4-(2-methylpropyl)-2-(trifluoromethyl)-, methyl ester]: the inhibition at 11200 g/ha was 50 to 74% in the assay with Velvetleaf; 0 to 24% in the assay on Canada thistle; 0 to 24% in the assay on Cocklebur; 0 to 24% in the assay with Yellow Nutsedge; 75 to 100% in the assay with Barnyardgrass; 75 to 100% in the assay on Common Lambsquarters. Further, the inhibition at 11200 g/ha is 75 to 100% in the assay on Downy Brome; 75 to 100% in the assay on Rhizome Johnsongrass; 75 to 100% in the assay on Quackgrass; 50 to 74% with Morningglory; 0 to 24% in the assay on Pennsylvania Smartweed.

Regarding `COC(=O)c1c(C(F)(F)F)nc(OC)c(N=CSC)c1CC(C)C` [Compound 58, 3-pyridinecarboxylic acid, 6-methoxy-4-(2-methylpropyl)-5-[(methylthiomethylene)]amino-2-(trifluoromethyl)-, methyl ester], the inhibition at 11200 g/ha in the assay on Velvetleaf lay in the range of 25 to 49%; with Canada thistle, 0 to 24%; in the assay with Cocklebur it was 0 to 24%; with Yellow Nutsedge, 0 to 24%; in the assay with Barnyardgrass, 75 to 100%; in the assay on Common Lambsquarters, 75 to 100%. The inhibition at 11200 g/ha with Downy Brome lay within 75 to 100%; with Rhizome Johnsongrass, 0 to 24%; in the assay with Quackgrass it was 75 to 100%; in the assay with Morningglory it was 25 to 49%; in the assay on Pennsylvania Smartweed, 75 to 100%.

Consider `COc1nc(C(F)(F)F)c(C(=O)n2cccn2)c(C2CCC2)c1C(=O)n1cccn1` [Compound 59, 4-cyclobuty1-2-methoxy-3,5-bis(1H-pyrazo1-1-ylcarbonyl)-6-(trifluoromethyl)-pyridine], for which the inhibition at 11200 g/ha with Velvetleaf fell in the range of 50 to 74%; in the assay with Canada thistle, 0 to 24%; in the assay with Cocklebur, 0 to 24%; in the assay on Yellow Nutsedge it was 0 to 24%; in the assay on Barnyardgrass, 75 to 100%; in the assay with Common Lambsquarters, 75 to 100%. Also, the inhibition at 11200 g/ha in the assay on Downy Brome fell in the range of 75 to 100%; in the assay on Rhizome Johnsongrass, 0 to 24%; with Quackgrass, 75 to 100%; in the assay with Morningglory, 75 to 100%; in the assay with Pennsylvania Smartweed, 75 to 100%.

In the case of `COC(=O)c1c(OC)nc(C(F)(F)F)c(C(=O)n2cncn2)c1CC(C)C` [Compound 60, 3-pyridinecarboxylic acid, 2-methoxy-4-(2-methylpropyl)-5-(1H-1,2,4-triazo1-1-ylcarbonyl)-6-(trifluoromethyl)-, methyl ester], the inhibition at 11200 g/ha fell in the range of 75 to 100% in the assay with Velvetleaf; 75 to 100% in the assay with Canada thistle; 25 to 49% with Cocklebur; 0 to 24% in the assay with Yellow Nutsedge; 75 to 100% in the assay with Barnyardgrass; 75 to 100% in the assay with Common Lambsquarters. The inhibition at 11200 g/ha in the assay on Downy Brome, in the assay with Rhizome Johnsongrass, in the assay on Quackgrass, with Morningglory and in the assay with Pennsylvania Smartweed was 75 to 100% each time.

Consider `CCOC=Nc1c(C(F)(F)F)nc(OC)c(C(=O)OC)c1CC(C)C` [Compound 61, 3-pyridinecarboxylic acid, 5-[(ethoxymethylene)amino]-2-methoxy-4-(2-methylpropyl)-6-(trifluoromethyl)-, methyl ester], for which the inhibition at 11200 g/ha in the assay on Velvetleaf was 75 to 100%; in the assay with Canada thistle, 50 to 74%; in the assay on Cocklebur, 25 to 49%; in the assay on Yellow Nutsedge, 0 to 24%; with Barnyardgrass, 75 to 100%; in the assay on Common Lambsquarters it was 75 to 100%. Further, the inhibition at 11200 g/ha with Downy Brome, in the assay on Rhizome Johnsongrass, in the assay on Quackgrass, in the assay on Morningglory and in the assay with Pennsylvania Smartweed was 75 to 100% throughout.

On to `COC(=O)c1c(OC)nc(C(F)(F)F)c(N=CN(C)C)c1CC(C)C` [Compound 62, 3-pyridinecarboxylic acid, 5-[[(dimethylamino)methylene]amino]-2-methoxy-4-(2-methylpropyl)-6-(trifluoromethyl)-, methyl ester], for which the inhibition at 11200 g/ha is 75 to 100% in the assay on Velvetleaf; 75 to 100% in the assay on Canada thistle; 25 to 49% in the assay with Cocklebur; 25 to 49% in the assay with Yellow Nutsedge; 75 to 100% with Barnyardgrass; 75 to 100% with Common Lambsquarters. Besides, the inhibition at 11200 g/ha fell in the range of 75 to 100% in the assay on Downy Brome; 50 to 74% in the assay on Rhizome Johnsongrass; 75 to 100% in the assay on Quackgrass; 75 to 100% with Morningglory; 75 to 100% in the assay on Pennsylvania Smartweed.
